Drawing on BindingDB's records for patent US20250214942 (University ff Texas System, 2025), this text covers IC50 for one compound.

The target of the assay is T1, Receptor-interacting serine/threonine-protein kinase 1 (Homo sapiens, UniProt Q13546).
T1 sequence (Q13546 whole entry): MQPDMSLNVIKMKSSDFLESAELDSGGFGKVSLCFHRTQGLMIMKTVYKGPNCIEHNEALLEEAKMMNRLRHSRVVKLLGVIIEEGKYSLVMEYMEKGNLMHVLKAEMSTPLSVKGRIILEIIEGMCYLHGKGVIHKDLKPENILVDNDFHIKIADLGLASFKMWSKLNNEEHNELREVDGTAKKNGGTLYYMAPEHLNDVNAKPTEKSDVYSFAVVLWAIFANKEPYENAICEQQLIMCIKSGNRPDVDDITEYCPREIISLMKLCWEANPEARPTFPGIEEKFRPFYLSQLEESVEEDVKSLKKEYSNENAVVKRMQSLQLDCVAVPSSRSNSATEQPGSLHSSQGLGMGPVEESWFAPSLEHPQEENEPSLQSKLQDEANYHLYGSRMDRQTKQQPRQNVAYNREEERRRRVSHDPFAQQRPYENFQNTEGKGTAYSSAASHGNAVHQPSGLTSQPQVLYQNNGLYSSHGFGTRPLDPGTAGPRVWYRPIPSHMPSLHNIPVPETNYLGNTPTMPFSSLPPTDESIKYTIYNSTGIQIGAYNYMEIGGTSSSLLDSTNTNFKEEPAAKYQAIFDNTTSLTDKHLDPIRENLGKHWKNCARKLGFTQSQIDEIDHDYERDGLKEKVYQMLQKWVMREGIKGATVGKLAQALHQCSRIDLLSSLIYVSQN
The assay can be described thus: ADP-Glo Kinase Assay. On the procedure:
In order to measure RIPK1 activity the ADP-Glo kinase assay (Promega, Catalog #V7002) was used to measure the conversion of ATP to ADP. […] Stock solutions of the test compounds were prepared in 100% DMSO (Sigma, Catalog #D2650) and serially diluted 1:3 using 100% DMSO. Compounds were additionally diluted 1:40 in assay buffer, and 2 μL/well were transferred to the assay plate. 4 μL/well (final concentration of 5 nM) of RIPK1 protein (SignalChem, Catalog #R07-1IG-05) diluted in assay buffer and added to the assay plate followed by a 10 minute preincutation at rt. 4 μL/well of ATP (Promega, Catalog #V7002) (final concentration of 50 μM) diluted in assay buffer were then added to the assay plate followed by a 6 h reaction time. Final concentrations of RIPK1 and ATP refer to a 10 μL volume. Luminescence was measured using a BioTek Synergy™ NEO plate reader. IC50 values were calculated using a four-parameter logistic curve fit using Genedata Screener software.
Background: In ADP-Glo the light output rises with the ADP produced.

The structures appear in SMILES notation.

As a reminder, the IC50 is the midpoint of a concentration-inhibition curve. With `O=C(N1N=CCC1c1cc(F)cc(F)c1)C12CC(Cn3ncc4ncccc43)(C1)C2` (stereo unspecified) [US20250214942, Example 148], the IC50 worked out at 80 nM.
